Assay: Absorption, distribution, metabolism and excretion of oral [14C]vorasidenib in humans; metabolite profiling in plasma, urine, feces
Conditions: human, in vivo
Experimental: Metabolite profiling and identification of vorasidenib (AG-881) was performed in plasma, urine, and fecal samples collected from five healthy subjects after a single 50-mg (100 μCi) oral dose of [14C]AG-881 and concomitant intravenous microdose of [^13C3 ^15N3]AG-881.
Plasma samples collected at selected time points from 0 through 336 hour postdose were pooled across subjects to generate 0- to 72 and 96-336-hour area under the concentration-time curve (AUC)-representative samples. Urine and feces samples were pooled by subject to generate individual urine and fecal pools. Plasma, urine, and feces samples were extracted, as appropriate, the extracts were profiled using high performance liquid chromatography (HPLC), and metabolites were identified by liquid chromatography-mass spectrometry (LC-MS and/or LC-MS/MS) analysis and by comparison of retention time with reference standards, when available.
Due to low radioactivity in samples, plasma metabolite profiling was performed by using accelerator mass spectrometry (AMS). In plasma, AG-881 was accounted for 66.24 and 29.47% of the total radioactivity in the pooled AUC0-72 h and […] plasma, respectively. The most abundant radioactive peak (P7; M458) represented 0.10 and 43.92% of total radioactivity for pooled AUC0-72 and AUC96-336 h plasma, respectively. All other radioactive peaks accounted for less than 6% of the total plasma radioactivity and were not identified.

| SMILES | radioactivity recovered in feces, % of the dose | unchanged parent detected in urine | radioactivity recovered in urine, % of the dose |
| --- | --- | --- | --- |
| C[C@@H](Nc1nc(N[C@H](C)C(F)(F)F)nc(-c2cccc(Cl)n2)n1)C(F)(F)F [AG-881, 6-(6-chloropyridin-2-yl)-N2, N4-bis((R)-1,1,1-trifluoropropan-2-yl)-1,3,5-triazine-2,4-diamine, reference compound] | 55.5 % of the dose | no AG-881 was detected |  |
| CS(=O)(=O)c1cccc(-c2nc(N)nc(N)n2)n1 [Compound M266] |  |  | 2.54 % of the dose |
| C[C@@H](Nc1nc(N[C@H](C)C(F)(F)F)nc(-c2cccc(S(=O)(=O)O)n2)n1)C(F)(F)F [Compound M460-1] | 2-5 % of the dose |  |  |
| C[C@@H](Nc1nc(N[C@H](C)C(F)(F)F)nc(-c2cccc(SCC(N)C(=O)O)n2)n1)C(F)(F)F (some centres unmarked) [Compound M499] | 2-5 % of the dose |  |  |
